Like-named read-outs stand apart in the source and are kept apart here.

The values that follow come from paper PMC6556873, “Rapid Covalent-Probe Discovery by Electrophile-Fragment Screening” (Journal of the American Chemical Society, 2019).

Series [1] in a line: in vitro. The arrangement: species or system CCD841, HEK293. Particulars: human, hb2 cells, read-out: HB-2 Cells Viability (%).
Series [2] can be described thus: in vitro. The arrangement: species or system HB2, CCD841. Particulars: human, hek293 cells.
Series [3] deals with T1, NNMT (hNNMT) (Homo sapiens, UniProt P40261).
T1 construct: wild type, N-terminal His6 tag kept (no cleavage described), E. coli, construct 31248 Da
T1 sequence (P40261 1-264): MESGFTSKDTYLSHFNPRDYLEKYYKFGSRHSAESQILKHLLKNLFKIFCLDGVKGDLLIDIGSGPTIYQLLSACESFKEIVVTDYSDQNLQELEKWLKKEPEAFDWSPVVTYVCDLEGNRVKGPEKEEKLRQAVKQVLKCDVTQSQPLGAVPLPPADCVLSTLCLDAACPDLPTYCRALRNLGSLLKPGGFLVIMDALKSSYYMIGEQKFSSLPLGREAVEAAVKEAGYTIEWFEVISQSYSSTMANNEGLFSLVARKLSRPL
Also noted: Intact protein LC/MS covalent labelling, fragments in pools of five, 200 uM each, 4 °C. The settings on record: 24 h, 4 °C, pool of five; 200 µM; covalent.

Series [4] has as its target T2, OTUB2 (OTUB2A) (Homo sapiens, UniProt Q96DC9).
T2 construct: full length residues 1-234, E. coli BL21(DE3)-R3, His tag removed by TEV, construct 27312 Da
T2 sequence (Q96DC9 1-234): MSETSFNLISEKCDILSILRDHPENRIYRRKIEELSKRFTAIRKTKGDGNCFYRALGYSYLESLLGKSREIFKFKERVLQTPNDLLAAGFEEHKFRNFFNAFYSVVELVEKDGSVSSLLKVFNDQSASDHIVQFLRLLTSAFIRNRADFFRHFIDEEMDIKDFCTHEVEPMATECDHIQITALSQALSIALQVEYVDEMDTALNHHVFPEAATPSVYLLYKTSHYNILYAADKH
Also noted: Intact protein LC/MS covalent labelling, fragments in pools of five, 200 uM each, 4 °C. Particulars: 24 h, 4 °C, pool of five; 200 µM; covalent.

For series [5], the target named is T3, NUDT7 (Homo sapiens, UniProt P0C024).
T3 construct: residues 14-235, E. coli, pNIC28-Bsa4, N-terminal His6 tag removed by TEV, construct 26672 Da
T3 sequence (P0C024 14-235): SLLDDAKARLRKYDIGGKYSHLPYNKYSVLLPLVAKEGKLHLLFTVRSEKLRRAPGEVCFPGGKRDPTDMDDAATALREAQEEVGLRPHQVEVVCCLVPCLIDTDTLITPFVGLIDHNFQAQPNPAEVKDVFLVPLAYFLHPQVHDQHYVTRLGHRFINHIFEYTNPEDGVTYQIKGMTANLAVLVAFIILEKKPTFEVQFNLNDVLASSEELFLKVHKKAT
Also noted: Intact protein LC/MS covalent labelling, fragments in pools of five, 200 uM each, 4 °C. Particulars: 24 h, 4 °C, pool of five; 200 µM; covalent.

Series [6] deals with T4, BSA (Bos taurus, UniProt P02769).
T4 construct: gene ALB
T4 sequence (P02769 whole entry): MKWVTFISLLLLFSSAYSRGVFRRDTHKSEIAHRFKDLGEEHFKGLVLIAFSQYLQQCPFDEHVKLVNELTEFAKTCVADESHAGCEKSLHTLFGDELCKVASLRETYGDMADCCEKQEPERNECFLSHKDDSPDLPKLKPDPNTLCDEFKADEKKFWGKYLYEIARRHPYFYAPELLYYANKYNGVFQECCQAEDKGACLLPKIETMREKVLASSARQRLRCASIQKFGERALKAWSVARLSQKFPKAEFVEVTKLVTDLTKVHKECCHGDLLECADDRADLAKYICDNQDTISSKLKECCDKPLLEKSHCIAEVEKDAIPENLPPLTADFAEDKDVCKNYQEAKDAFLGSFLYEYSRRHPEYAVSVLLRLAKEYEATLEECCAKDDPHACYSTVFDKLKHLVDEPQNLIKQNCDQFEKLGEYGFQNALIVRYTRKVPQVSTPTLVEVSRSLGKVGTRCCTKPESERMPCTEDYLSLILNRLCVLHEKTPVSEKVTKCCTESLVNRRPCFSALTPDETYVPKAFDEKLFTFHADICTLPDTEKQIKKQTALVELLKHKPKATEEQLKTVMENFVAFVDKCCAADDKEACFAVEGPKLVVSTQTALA
Also noted: Intact protein LC/MS covalent labelling, fragments in pools of five, 200 uM each, 4 °C. Particulars: 24 h, 4 °C, pool of five; 200 µM; covalent.

The target in series [7] is T5, PCAF (Homo sapiens, UniProt Q92831).
T5 construct: gene KAT2B
T5 sequence (Q92831 whole entry): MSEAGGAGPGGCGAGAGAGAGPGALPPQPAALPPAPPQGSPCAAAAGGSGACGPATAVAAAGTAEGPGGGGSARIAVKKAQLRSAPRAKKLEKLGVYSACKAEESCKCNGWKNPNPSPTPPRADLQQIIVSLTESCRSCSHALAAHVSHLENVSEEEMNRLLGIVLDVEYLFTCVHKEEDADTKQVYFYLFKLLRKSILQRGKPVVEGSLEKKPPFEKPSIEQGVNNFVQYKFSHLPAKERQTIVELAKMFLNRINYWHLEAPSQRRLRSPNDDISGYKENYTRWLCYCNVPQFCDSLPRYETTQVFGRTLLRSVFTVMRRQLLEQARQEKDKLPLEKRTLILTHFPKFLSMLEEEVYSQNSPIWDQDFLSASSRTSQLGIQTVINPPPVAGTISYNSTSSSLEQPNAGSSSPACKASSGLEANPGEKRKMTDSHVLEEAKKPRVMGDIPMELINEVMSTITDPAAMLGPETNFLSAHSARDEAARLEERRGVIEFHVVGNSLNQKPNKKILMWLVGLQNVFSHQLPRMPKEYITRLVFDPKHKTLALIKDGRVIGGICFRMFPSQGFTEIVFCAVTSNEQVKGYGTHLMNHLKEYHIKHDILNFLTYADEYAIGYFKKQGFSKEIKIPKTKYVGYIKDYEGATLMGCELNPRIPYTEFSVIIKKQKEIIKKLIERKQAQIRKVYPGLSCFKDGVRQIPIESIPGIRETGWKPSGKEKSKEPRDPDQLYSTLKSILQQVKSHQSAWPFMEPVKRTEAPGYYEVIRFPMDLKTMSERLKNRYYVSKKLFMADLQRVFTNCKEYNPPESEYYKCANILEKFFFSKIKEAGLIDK
Also noted: Intact protein LC/MS covalent labelling, fragments in pools of five, 200 uM each, 4 °C. Particulars: 24 h, 4 °C, pool of five; 200 µM; covalent.

The nature of series [8]: in vitro. Also noted: species or system HB2, HEK293. Particulars: human, ccd841 cells.

With `CC(NC(=O)CCl)c1ccc(Br)cc1` (stereo not shown) [PCM-0102374], the viability at 48 h, 10 µM in series [1] was determined as 63.8%; in series [2], 50%; in series [8], 73.1%. In series [3], the NNMT stood at 0.55. The molecule further yielded an OTUB2 in series [4] of 0.34. Also, the NUDT7 in series [5] was 0.23. This molecule yielded a BSA in series [6] of 0. This molecule also returned a PCAF in series [7] of 0.

Take `O=C(CCl)Nc1ccccc1N1CCCC1=O` [PCM-0102375]: the viability at 48 h, 10 µM in series [1] was 79.6%; in series [2] it was 51.9%; in series [8], 78%. This molecule gave an NNMT in series [3] of 0. This molecule also yielded an OTUB2 in series [4] of 0.13. The NUDT7 in series [5] was 0. In series [6], this molecule gave a BSA of 0. In series [7], the PCAF was 0.

For the molecule `Cc1ccc(-c2cc(NC(=O)CCl)on2)cc1` [PCM-0102382], the viability at 48 h, 10 µM in series [1] is 42.7%; in series [2], 52.2%; in series [8], 54.6%. In addition, the NNMT in series [3] is 0.64. Also, the OTUB2 in series [4] worked out at 0.45. Further, in series [5], the NUDT7 is on record as 0.81. Also, the BSA in series [6] is 0. In series [7], this molecule displayed a PCAF of 0.

With `O=C(CCl)N1CCN(Cc2ccc3c(c2)OCCO3)CC1` [PCM-0102386], the viability at 48 h, 10 µM in series [1] was 42.2%; in series [2], 39.1%; in series [8] it was 75.9%. The molecule further displayed an NNMT in series [3] of 0. The molecule further yielded an OTUB2 in series [4] of 0. The NUDT7 in series [5] was 0. In series [6], this molecule came in with a BSA of 0. In series [7], the PCAF turned out to be 0.

In the case of `O=C(Nc1ccccc1O)C1CCN(C(=O)CCl)CC1` [PCM-0102389], the viability at 48 h, 10 µM came to 35.7% in series [1], 16% in series [2] and 63% in series [8]. In series [3], this molecule gave an NNMT of 0. This molecule returned an OTUB2 in series [4] of 0.14. The molecule also displayed an NUDT7 in series [5] of 0.1. Further, the BSA in series [6] amounted to 0. In series [7], the PCAF was 0.

Regarding `Cc1ccccc1C(C)NC(=O)CCl` (stereo not shown) [PCM-0102390], the values for the viability at 48 h, 10 µM in series [1], in series [2] and in series [8] were 92.8%, 75.8% and 71.4%, respectively. This molecule also came in with an NNMT in series [3] of 0.26. For the same molecule, in series [4], the OTUB2 is 0.26. This molecule also displayed an NUDT7 in series [5] of 0.1. The BSA in series [6] came out at 0. In series [7], this molecule registered a PCAF of 0.

With `Cl.O=C(CCl)N1CCN(Cc2ccc3c(c2)OCO3)CC1` [PCM-0102397], the viability at 48 h, 10 µM in series [1] stood at 20.7%; in series [2], 31.7%; in series [8] it was 67.3%. The NNMT in series [3] was found to be 0. The same molecule returned an OTUB2 in series [4] of 0. Moreover, the NUDT7 in series [5] amounted to 0. In addition, the BSA in series [6] came out at 0. The molecule further gave a PCAF in series [7] of 0.

In the case of `O=C(CCl)Nc1ccc(C(=O)O)cc1` [PCM-0102400], the figures for the viability at 48 h, 10 µM in series [1], in series [2] and in series [8] were 84.1%, 112% and 72.5%, respectively. Also, in series [3], the NNMT is on record as 0. Also, the OTUB2 in series [4] was found to be 0. For the same molecule, the NUDT7 in series [5] was 0. In series [6], this molecule came in with a BSA of 0. In addition, the PCAF in series [7] was 0.

In the case of `CN(Cc1ccc(Br)cc1)C(=O)CCl` [PCM-0102401], the viability at 48 h, 10 µM in series [1] amounted to 6.8%; in series [2], 7.3%; in series [8], 32.1%. In series [3], this molecule yielded an NNMT of 0.53. The same molecule registered an OTUB2 in series [4] of 0. The same molecule registered an NUDT7 in series [5] of 0.58. Besides, the BSA in series [6] worked out at 0. The same molecule had a PCAF in series [7] of 0.

As to `O=C(CCl)NC1C2CC3CC(C2)CC1C3` (stereo not shown) [PCM-0102404], the viability at 48 h, 10 µM in series [1] was 63.3%; in series [2], 90.6%; in series [8], 68.9%. In series [3], this molecule showed an NNMT of 0. The OTUB2 in series [4] came out at 0.33. The molecule further came in with an NUDT7 in series [5] of 0. The same molecule yielded a BSA in series [6] of 0. In addition, in series [7], the PCAF is listed as 0.

For `CS(=O)(=O)c1cccc(NC(=O)CCl)c1` [PCM-0102407], the values for the viability at 48 h, 10 µM in series [1], in series [2] and in series [8] were 26.4%, 1.4% and 47%, respectively. Further, the NNMT in series [3] is on record as 0. This molecule also returned an OTUB2 in series [4] of 0.33. Also, the NUDT7 in series [5] came out at 0. The molecule further returned a BSA in series [6] of 0. The PCAF in series [7] stood at 0.

Take `O=C(CCl)NC(=O)c1ccccc1` [PCM-0102414]: the viability at 48 h, 10 µM in series [1] was found to be 102%; in series [2] it was 91.5%; in series [8] it was 101%. This molecule gave an NNMT in series [3] of 0. In addition, in series [4], the OTUB2 is given as 0. The same molecule yielded an NUDT7 in series [5] of 0. Further, in series [6], the BSA is 0. In addition, the PCAF in series [7] worked out at 0.

For `O=C(CCl)Nc1ccccc1N1CCOCC1` [PCM-0102416], the viability at 48 h, 10 µM in series [1] came to 99.5%; in series [2], 113%; in series [8] it was 90.7%. Further, the NNMT in series [3] turned out to be 0. This molecule returned an OTUB2 in series [4] of 0. Further, in series [5], the NUDT7 stood at 0. In series [6], this molecule had a BSA of 0. The molecule also yielded a PCAF in series [7] of 0.

In the case of `COC(=O)c1c(NC(=O)CCl)sc2c1CCC(C)C2` (stereo not shown) [PCM-0102418], the viability at 48 h, 10 µM in series [1] was found to be 40.8%; in series [2], 56.4%; in series [8], 88.6%. Besides, in series [3], the NNMT came to 0.8. The molecule further returned an OTUB2 in series [4] of 0. In addition, the NUDT7 in series [5] was 0.12. In series [6], this molecule showed a BSA of 0. The PCAF in series [7] was determined as 0.

With `C=CC(=O)N1CCCc2cc(C(=O)O)ccc21` [PCM-0102421], the viability at 48 h, 10 µM in series [1] was 96.3%; in series [2], 87.2%; in series [8], 109%. The molecule further showed an NNMT in series [3] of 0.19. In series [4], the OTUB2 is 0. In series [5], this molecule returned an NUDT7 of 0. The BSA in series [6] is reported as 0. Besides, the PCAF in series [7] is recorded as 0.

As for `O=C(CCl)NN1C(=O)NC2(CCCCC2)C1=O` [PCM-0102424], the figures for the viability at 48 h, 10 µM in series [1], in series [2] and in series [8] were 95%, 103% and 94.7%, respectively. Also, the NNMT in series [3] is recorded as 0. This molecule came in with an OTUB2 in series [4] of 0. In series [5], the NUDT7 is 0.06. The molecule further registered a BSA in series [6] of 0. Also, in series [7], the PCAF was found to be 0.

Regarding `CC(C)c1cccc(NC(=O)CCl)c1` [PCM-0102429], the viability at 48 h, 10 µM in series [1] amounted to 17.7%; in series [2] it was 17.7%; in series [8], 57.3%. In addition, the NNMT in series [3] worked out at 0.52. In series [4], the OTUB2 was 0.23. Moreover, the NUDT7 in series [5] stood at 0.1. The molecule also registered a BSA in series [6] of 0. The molecule also showed a PCAF in series [7] of 0.

`Cc1cc(CNC(=O)CCl)cc(C)c1O` [PCM-0102431]: the viability at 48 h, 10 µM was found to be 85.7% in series [1], 84.6% in series [2] and 96.3% in series [8]. In addition, the NNMT in series [3] was determined as 0. In series [4], this molecule came in with an OTUB2 of 0.64. The NUDT7 in series [5] is given as 0. Moreover, the BSA in series [6] turned out to be 0. In series [7], this molecule registered a PCAF of 0.

As for `O=C(CCl)N1Cc2ccccc2C(c2ccccc2)C1` (stereo not shown) [PCM-0102432], the viability at 48 h, 10 µM turned out to be 38.2% in series [1], 20.6% in series [2] and 12.4% in series [8]. In series [3], the NNMT came out at 0.65. In series [4], this molecule had an OTUB2 of 0.17. The same molecule came in with an NUDT7 in series [5] of 0.33. Besides, in series [6], the BSA was determined as 0. The molecule further gave a PCAF in series [7] of 0.

With `C=CC(=O)N1CCC(n2ccc(C(F)(F)F)n2)CC1` [PCM-0102435], the viability at 48 h, 10 µM in series [1] stood at 96.3%; in series [2], 85.7%; in series [8], 93.3%. This molecule had an NNMT in series [3] of 0. Besides, the OTUB2 in series [4] was 0. The molecule also yielded an NUDT7 in series [5] of 0. This molecule also returned a BSA in series [6] of 0. In series [7], the PCAF was determined as 0.
